What was measured:
[1] = test system: experimental autoimmune encephalomyelitis; settings: murine EAE models; cited from earlier work
[2] = test system: Iba1+ cells (microglial activation); assay: Immunohistochemistry of microglial cells in brainstem motor nuclei; type: in vivo, mouse; settings: facial and hypoglossal motor nuclei; compared to Injury
Description: At the end of experiment, mice were subjected to full body perfusion with 20% sucrose and 10% buffered formalin suitable for histology assays (Sigma Aldrich, St.Louis, MO, USA). Mice were decapitated and incubated in formalin for 24 h. Following the tissues (brain and spinal cord) were isolated, paraffin fixed for further analyses. After brain removal, the tissue was fixed in a formaldehyde solution (4%) for 2-4 hours at RT followed by 4° C. for a total time of 24-48 hours. Fixed tissues were embedded in paraffin and finally sectioned into 7 μm slices. […]
Assessment of neuronal and microglial positive cells were performed in the region of interest (ROI). […] The images were analyzed and reconstructed using Image J (US National Institutes of Health).
All quantifications were performed including the manual cell counts in a blinded manner. The NeuN and Ibal were counted as positive cells in the ROI (see above) as previously reported. The number of cells was determined by unbiased counting of positive cells. […] Differences between groups were analyzed using a repeated measure ANOVA model with a fixed effect for the group, of the time and a random intercept for the mouse. In a second, more explorative, approach for each group the time when the physical activity was first measured below a certain threshold was determined. […]

IL-12 = assay: Serum cytokine analysis, multiplex ELISA; type: in vivo, mouse; settings: serum collected weekly; compared to other groups
Description: (§1) Samples were collected every week, starting from day of graft transplantation (day 0), 100 μl of blood from mouse tail. Blood was stored 1 h in room temperature, and overnight in +4° C. Serum was gently aspirated, and centrifuged 10 min with 2000 RPM to separate blood morphotic bodies. Purified serum was stored in −80° C. until further analysis. Multiplex ELISA 23-cytokine kit (M60009RDPD) was obtained from Bio-Rad (Bio-Plex Pro Mouse Cytokine 23-plex Assay #M60009RDPD, Hercules, Bio-Rad, CA, USA, RRID: AB_2857368) and performed according to instructions. 50 μl of diluted in sample diluent, 1:4 serum samples and diluted at range 1:10-1:20. Measurement standards were used, diluted 9 times according to the protocol and added at template plate. Vortexed beads were added to the assay 96-well plate. Plate was again washed 3 times with wash buffer, then from template plate, 50 μl of samples, standards and blank were transferred to measurement plate with multichannel pipette. Plate was sealed with tape and incubated 30 min. After this time, plate was washed 3 times. 25 μl of detection antibody was added to the wells with multichannel pipette. Plate was sealed and incubated for 30 min. and next washed 3 times using wash buffer. […] Beads were resuspended with 125 μl of assay buffer and analysis was performed with Bio Plex 200 reader.
(§2) All quantifications were performed including the manual cell counts in a blinded manner. The NeuN and Ibal were counted as positive cells in the ROI (see above) as previously reported. The number of cells was determined by unbiased counting of positive cells. […] Differences between groups were analyzed using a repeated measure ANOVA model with a fixed effect for the group, of the time and a random intercept for the mouse. In a second, more explorative, approach for each group the time when the physical activity was first measured below a certain threshold was determined. […] The clinically relevant threshold was determined according to previous observations and defined as value 0.9 for the Wire Test. […] The statistical significance at p<0.05 was then determined.

IL-1α = assay: Serum cytokine analysis, multiplex ELISA; type: in vivo, mouse; settings: serum collected weekly; compared to Injury and mGRPs groups
Description: as §1, §2

MVRIKPGSANKPSDD [sPIF]
paralysis and myelination [1]: reverse and prevent paralysis and restore myelination | number of Iba1+ microglial cells (neuroinflammation) [2]: significant prevention of neuroinflammation | peripheral IL-12 cytokine level (IL-12): plateaued at day 28 | peripheral IL-1α cytokine peak (IL-1α): decreased IL-1α peak significantly

Source: patent US20250170212A1, “COMPOSITIONS AND METHODS OF TREATING AMYOTROPHIC LATERAL SCLEROSIS (ALS) AND RELATED DISORDERS” (BIOINCEPT, LLC, priority 2022, published 2025)
